The test system of assay [1] is Pichia pastoris mutant strain YGLY17156. The experiment in a line: Growth on YSD agar plates containing PMTi-4. The note with it: agar plate, 24° C. The assay is classed as cell-based.
Assay [2] relates to Pichia pastoris mutant strain YGLY17157. Description: Growth on YSD agar plates containing PMTi-4. It counts as cell-based. The following applies: agar plate, 24° C. How it is done:
(§1) UV mutagenesis was performed as described by Winston (Curr. Protoc. Mol. Biol. 82:13.3B.1-13.3B.5 (2008)). Briefly, Pichia pastoris strain YGLY19376 (GFI5.0, pmt4Δ, expressing a recombinant IgG1) was grown in 40 mL YSD liquid medium over night at 24° C. Upon reaching an OD600 of five, a 10 mL aliquot of culture was transferred into an empty 100 mm sterile Petri dish, and treated, with the lid off, with 12 mJ/cm^2 of UV irradiation. After the UV treatment, the Petri dish was immediately covered with aluminum foil (to prevent photo-induced DNA repair). The mutagenized cells were allowed to recover at 24° C. for three hours in the dark. Two mL of the recovered YGLY19376 was then centrifuged at 2,000 rpm for five minutes. The cell pellet was then re-suspended in 400 μL 2% BMGY media and subsequently plated onto YSD agar plates containing 2 μg/mL or 4 μg/mL PMTi-4 PMT inhibitor (Example 4 compound of U.S. Published Application No. 20110076721 having the structure
After seven days incubation at 24° C., colonies were picked and re-streaked onto fresh PMTi-4-containing plates at the above concentrations.

Assay [3] has as its system PMTi-4-resistant mutant strain YGLY17157. The experiment in a line: 1 L DasGip MeOH fed-batch fermentation with PMTi-4 (lysis, WCW, IgG1 titer, glycans). The assay is classed as cell-based, Pichia pastoris. The method, then: (§2) Fed-batch fermentations, IgG1 purifications, characterization of N- and O-glycan profiles as well as all other analytical assays, were performed essentially as previously described (Barnard et al., J. Ind. Microbiol. Biotechnol. 37(9): 961-71 (2010); Potgieter et al., J. Biotechnol. 139(4):318-25 (2009)).
(§3) Both PMT inhibitor-resistant mutant strains (YGLY17156 and YGLY17157), as well as the non-mutagenized parent strain YGLY19376 were grown in 1 L DasGip fermentors using a standard MeOH fed-batch fermentation protocol (See for example, Potgieter et al., J. Biotechnol. 139(4): 318-25 (2009) and Hopkins et al., Glycobiol. August 12. [Epub ahead of print] PubMed PMID: 21840970 (2011)).
(§4) The robustness of the strains was determined by examining the fermentation cell cultures under microscope. Depending on the proportion of cell debris, a lysis-score was assigned from 0.5 to 5, with 5 being the worst lysis.
(§5) The inoculum seed flasks were inoculated from yeast patches (isolated from a single colony) on agar plates into 0.1 L of 4% BSGY in a 0.5-L baffled flask. Seed flasks were grown at 180 rpm and 24° C. (Innova 44, New Brunswick Scientific) for 48 hours. Cultivations were done in 1 L (fedbatch-pro, DASGIP BioTools) bioreactors. Vessels were charged with 0.54 L of 0.22 μm filtered 4% BSGY media and autoclaved at 121° C. for 45 minutes. After sterilization and cooling; the aeration, agitation and temperatures were set to 0.7 vvm, 400 rpm and 24° C. respectively. The pH was adjusted to and controlled at 6.5 using 30% ammonium hydroxide. Inoculation of a prepared bioreactor occurred aseptically with 60 mL from a seed flask. Agitation was ramped to maintain 20% dissolved oxygen (DO) saturation. After the initial glycerol charge was consumed, denoted by a sharp increase in the dissolved oxygen, a 50% w/w glycerol solution containing 5 mg/L biotin and 32.3 mg/L PMTi4 was triggered to feed at 3.68 mL/hr for eight hours. During the glycerol fed-batch phase 0.375 mL of PTM2 salts were injected manually. Completion of the glycerol fed-batch was followed by a 0.5 hour starvation period and initiation of the induction phase. A continuous feed of a 50% v/v methanol solution containing 2.5 mg/L biotin and 6.25 mL/L PTM2 salts was started at a flat rate of 2.16 mL/hour. Injections of 0.25 mL of 1.9 mg/mL PMTi-4 (in methanol) were added after each 24 hours of induction. In general, individual fermentations were harvested within 36-110 hours of induction. The culture broth was clarified by centrifugation (Sorvall Evolution RC, Thermo Scientific) at 8500 rpm for 40 min and the resulting supernatant was submitted for purification.

Assay [4] has as its system PMTi-4-resistant mutant strain YGLY17156. Described as above. The assay is classed as cell-based, Pichia pastoris. The method, then: as §2, §3, §4, §5
Assay [5] deals with non-mutagenized parent strain YGLY19376. Description: 1 L DasGip MeOH fed-batch fermentation with PMTi-4 (lysis, IgG1 titer, glycans). It counts as cell-based, Pichia pastoris. How it is done: as §2, §3, §4
The inoculum seed flasks were inoculated from yeast patches (isolated from a single colony) on agar plates into 0.1 L of 4% BSGY in a 0.5-L baffled flask. Seed flasks were grown at 180 rpm and 24° C. (Innova 44, New Brunswick Scientific) for 48 hours. Cultivations were done in 1 L (fedbatch-pro, DASGIP BioTools) bioreactors. Vessels were charged with 0.54 L of 0.22 μm filtered 4% BSGY media and autoclaved at 121° C. for 45 minutes. […]

Assay [6] concerns un-mutagenized YGLY19376 parent strain. The experiment in a line: Growth on agar plates containing PMT inhibitor. The assay is classed as cell-based, Pichia pastoris. The note with it: agar plate. How it is done:
as §1

The structures appear in SMILES notation. A value given as a limit tells only on which side of the number the result lay.

In the case of `CC(C)COCC(Oc1cc(/C=C2\SC(=S)N(CC(=O)O)C2=O)ccc1OCCc1ccc(F)cc1)c1ccccc1` (stereo not drawn) [PMTi-4], the “PMTi-4 concentration at which robust growth is exhibited” value in assay [1] is “at least 4 μg/mL”. Further, the PMTi-resistance level result in assay [2] is recorded as “at least 1 μg/mL”. Further, the “O-glycan Occupancy (mannitol/protein)” value is recorded as 0.6 mol/mol in assay [3] (IgG1), 2.4 mol/mol in assay [4] (IgG1) and 1.0 mol/mol in assay [5] (IgG1). The “Lysis at 24° C. Day 1” value in assay [3] (lysis-score 0.5 to 5, 5 worst) came out at 0.5; in assay [4] (lysis-score 0.5 to 5, 5 worst) it was 0.5. Besides, the “Lysis at 24° C. Day 3” value was 1 in assay [3] (lysis-score 0.5 to 5, 5 worst) and 1 in assay [4] (lysis-score 0.5 to 5, 5 worst). Also, the “Lysis at 24° C. Day 4” value in assay [3] (lysis-score 0.5 to 5, 5 worst) is 1; in assay [4] (lysis-score 0.5 to 5, 5 worst) it was 1.5. Further, the “WCW Day 4” value amounted to 303 in assay [3] (wet cell weight) and 236 in assay [4] (wet cell weight). Also, the “Lysis at 24° C. Day 2” value in assay [5] (lysis-score 0.5 to 5, 5 worst) came out at 3. The “PMT inhibitor concentration at which strain failed to grow” value in assay [6] is at most 0.1 µg/mL.

Values taken from patent US20140302556A1, “CONTROLLING O-GLYCOSYLATION IN LOWER EUKARYOTES” (priority 2011, published 2014).
